# Data from US9359487B2, “Plasticizers based on mixed esters of succinate” (Proviron Holding N.V., priority 2012, dated 2016).
# How the values were obtained:
# Format in all cases: physicochemical
# [1] = Weight loss test (volatility) of transparent plastisole PVC film at 100° C.; conditions: for Volatile: Weight difference @ 100° C. After 7 days (%) / Volatile: Weight difference @ 100° C. After 4 days (%): transparent PVC film, 50 phr plasticiser; for delta vs. ref. (weight difference after 4 days) / delta vs. ref. (weight difference after 7 days): versus DINP
# Experimental: Their plasticising behaviour is compared in a plastisole based transparent PVC film.
# (flooring type, top layer): Solvin 382NG 100 phr (obtainable from Solvay S.A., Belgium), plasticiser 50 phr, Ca/Zn stabiliser (Baerostab NT 306) 2.5 phr (obtainable from the company Baerlocher).
# The transparent film so formed is subjected to amongst others a weight loss test (volatility) at 100° C. for respectively 4 and 7 days. The plasticiser efficiency is determined by means of a hardness measurement. A measure for the compatibility of the plasticiser is the transparency.
# [2] = Volatility comparison of succinate and adipate ester (tests by the inventors); conditions: versus comparable adipate ester DEHA
# [3] = Extraction of plasticiser in water from plastisole samples; conditions: plastisol, 50 phr plasticizer; for Extractions by H2O (Weight Difference %) 1 d: after 1 day; for Extractions by H2O (Weight Difference %) 7 d: after 7 days; for Extractions by H2O (Weight Difference %) dry: after drying the sample
# Experimental: Various plastisoles were prepared on the basis of various plasticisers set forth in Table 1, according to the following formulae:
# 100 phr PVC (Vestolit B7021 ultra), 50 phr Plasticiser (Table 1), 3 phr ESBO (Drapex 39) (acting as anti-oxydans), 2 phr Ca/Zn stabiliser (Mark CZ 149).
# Apart from the above, the viscosity property of the plastisole solution was determined after 24 h (viscosity vs. Shear) and the thickening was determined. Apart from this the extraction of the plasticiser in water (expressed as % weight gain/weight loss) after 1 day, 7 days were determined, as well as after drying the sample.
# [4] = Volatility of pure plasticiser by thermal-gravimetrical analysis; conditions: 200° C./10 min, pure compound
Compound,Volatile: Weight difference @ 100° C. After 7 days (%) [1],delta vs. ref. (weight difference after 4 days) [1],delta vs. ref. (weight difference after 7 days) [1],volatility compared to di-2-ethylhexyl-adipate (DEHA) [2],Volatile: Weight difference @ 100° C. After 4 days (%) [1],Extractions by H2O (Weight Difference %) 1 d [3],Extractions by H2O (Weight Difference %) 7 d [3],Extractions by H2O (Weight Difference %) dry [3],Volatily plasticizer (weightloss [m %]) [4]
"CC(C)CCCCCCOC(=O)c1ccccc1C(=O)OCCCCCCC(C)C [DINP, Di-isononylphthalate]",−4.00%,,,,−2.30%,0.8%,1.8%,0.7%,−4.3 m %
"CCCCC(CC)COC(=O)CCCCC(=O)OCC(CC)CCCC (centres unmarked) [DOA, Di-octyladepate]",,,,,,1%,2.1%,0.7%,−18.4 m %
"CC(C)CCCCCCOC(=O)c1ccccc1 [INB, Isononyl Benzoate]",,,,,,0.9%,1.9%,0.5%,−61.7 m %
"CCCCC(CC)COC(=O)c1ccc(C(=O)OCC(CC)CCCC)cc1 (centres unmarked) [DOTP, Di-octyltherephthalate]",,,,,,0.8%,1.7%,0.7%,−4.8 m %

# Now from value to molecule, other results behind:
Volatile: Weight difference @ 100° C. After 7 days (%) [1],delta vs. ref. (weight difference after 4 days) [1],delta vs. ref. (weight difference after 7 days) [1],volatility compared to di-2-ethylhexyl-adipate (DEHA) [2],Compound,Volatile: Weight difference @ 100° C. After 4 days (%) [1],Extractions by H2O (Weight Difference %) 1 d [3],Extractions by H2O (Weight Difference %) 7 d [3],Extractions by H2O (Weight Difference %) dry [3],Volatily plasticizer (weightloss [m %]) [4]
−24.50%,×7.6,×6.1,,"CC(C)CCCCCCOC(=O)CCC(=O)OCCCCCCC(C)C [DINS, diisononylsuccinate]",,,,,
,,,approximately twice as volatile,"CCCCC(CC)COC(=O)CCC(=O)OCC(CC)CCCC (centres unmarked) [DEHSu, di-2-ethylhexyl-succinate]",,,,,
−17.60%,×5.0,×4.4,,"CCCCCC(CCC)COC(=O)CCC(=O)OCC(CCC)CCCCC (centres unmarked) [DPHS, di-(2-propylheptyl)succinate]",−11.50%,,,,
